From patent publication US6630169B1, “Particulate delivery systems and methods of use” (priority 2000, dated 2003)
Residues, ends and D or L forms follow the SMILES beside them. *: point of attachment. 5FAM = O=C1OC2(c3ccc(O)cc3Oc3cc(O)ccc32)c2ccc(C(=O)*)cc21

Test: Bioavailability of fluorescent-labeled HA PulmoSpheres, plasma peptide by fluorometry
Format: in vivo
Conditions: mice
Experimental: A formulation comprising fluoroscein-HA peptide (20% wt/wt) PulmoSpheres (f-HA-Pul) prepared as in Example IV was suspended in perflubron. Metofane anesthetized mice were inoculated intranasally (i.n.) with a […] volume of f-HA-Pul in perflubron, corresponding to […] of peptide dose. Blood samples were collected by ocular bleeding in heparin-treated tubes, the plasma was separated and the concentration of the peptide was measured by fluorometry. As a control, an intravenous i.v.) inoculation of […] of f-HA peptide in […] of sterile saline (n=4 for all groups) was used.

CC[C@H](C)[C@H](NC(=O)[C@H](CCC(=O)O)NC(=O)[C@H](Cc1ccccc1)NC(=O)[C@H](CCCNC(=N)N)NC(=O)[C@H](CCC(=O)O)NC(=O)[C@H](Cc1ccccc1)NC(=O)[C@H](CO)NC(=O)c1ccc2c(c1)C(=O)OC21c2ccc(O)cc2Oc2cc(O)ccc21)C(=O)N[C@@H](Cc1ccccc1)C(=O)N1CCC[C@H]1C(=O)N[C@@H](CCCCN)C(=O)N[C@@H](CCC(=O)O)C(=O)O [f-HA peptide] (5FAM-SFERFEIFPKE-OH; N-terminus and C-terminus assumed)
total clearance (elimination via urine): ≤ 6 h | Tmax (mouse, in vivo, i.n., f-HA-Pul in perflubron): 20 min | bioavailability (mouse, in vivo, i.n., f-HA-Pul in perflubron, vs i.v. f-HA peptide in saline, read-out: absolute bioavailability): ~5%
